As usually defined, the remaining activity is the signal under treatment as a percentage of the control signal.

Structures are written as SMILES.

The text below walks through data of PMC4579270, “Identification and Characterization of an Irreversible Inhibitor of CDK2” (Chemistry & Biology, 2015).

Test in all cases: Dundee protein kinase screen
What all share (type): biochemical

For one test, the target named is PLK1 (Homo sapiens, UniProt P53350). As to conditions: PLK1, 1µM; read-out: %Remaining activity at 1µM NU6300. The procedure:
(§1) Prior to determining its cellular activity, we carried out a screen to assess its selectivity against a panel of 131 protein kinases under conditions that would not distinguish between a reversible or irreversible mode of action. […] These 13 kinases and 29 additional kinases, selected for their known sensitivity to other inhibitors within the purine series, were then tested in a modified screening format in which the assay was repeated following a 4-hr pre-incubation (Table S3B). […] However, conformational flexibility around the active site may promote such an interaction with a residue from another part of the structure ([Martin et al., 2012]).
(§2) Table S3, Related to Figure 4. NCL-0006300 protein kinase selectivity. (A) NU6300 was tested at a single concentration of 1µM against 131 protein kinases present in a Dundee protein kinase screen (Bain et al., 2007). Values given are % activity remaining and are the average of duplicate measurements: 0-25% (red), 26-50% (yellow), 51-80% […]
(§3) (black) and above 81% (green). […]

Another test addresses T1, TBK1 (Homo sapiens, UniProt Q9UHD2).
T1 sequence (Q9UHD2 1-729): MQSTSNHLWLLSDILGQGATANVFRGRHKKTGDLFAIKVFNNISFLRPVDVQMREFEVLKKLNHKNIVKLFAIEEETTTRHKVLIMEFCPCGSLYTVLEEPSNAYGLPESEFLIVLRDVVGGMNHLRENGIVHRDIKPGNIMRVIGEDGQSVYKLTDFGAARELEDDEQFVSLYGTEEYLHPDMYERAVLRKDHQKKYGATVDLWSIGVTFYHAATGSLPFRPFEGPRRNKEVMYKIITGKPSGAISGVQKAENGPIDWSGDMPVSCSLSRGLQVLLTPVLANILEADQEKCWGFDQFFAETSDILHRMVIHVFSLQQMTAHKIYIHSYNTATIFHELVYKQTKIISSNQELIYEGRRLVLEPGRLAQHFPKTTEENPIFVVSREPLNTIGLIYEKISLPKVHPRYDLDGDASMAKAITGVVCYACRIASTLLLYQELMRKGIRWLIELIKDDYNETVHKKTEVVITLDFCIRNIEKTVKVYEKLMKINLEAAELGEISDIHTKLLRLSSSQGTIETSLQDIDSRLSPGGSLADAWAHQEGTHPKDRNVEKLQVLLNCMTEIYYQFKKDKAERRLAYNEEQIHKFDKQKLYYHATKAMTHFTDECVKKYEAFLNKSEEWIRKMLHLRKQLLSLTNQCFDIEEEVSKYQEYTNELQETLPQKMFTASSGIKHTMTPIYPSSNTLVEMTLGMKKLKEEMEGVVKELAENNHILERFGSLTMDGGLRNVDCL
As to conditions: TBK1, 1µM; read-out: %Remaining activity at 1µM NU6300. The procedure: as §1, §2, §3

A further test concerns the target ROCK 2 (Homo sapiens, UniProt O75116). As to conditions: ROCK 2, 1µM; read-out: %Remaining activity at 1µM NU6300. The method, then:
as §1, §2, §3

The target of the next test is MPSK1 (Homo sapiens, UniProt O75716). The note with it: MPSK1, 1µM; read-out: %Remaining activity at 1µM NU6300. The procedure: as §1, §2, §3
Chain of MPSK1 (O75716 whole entry): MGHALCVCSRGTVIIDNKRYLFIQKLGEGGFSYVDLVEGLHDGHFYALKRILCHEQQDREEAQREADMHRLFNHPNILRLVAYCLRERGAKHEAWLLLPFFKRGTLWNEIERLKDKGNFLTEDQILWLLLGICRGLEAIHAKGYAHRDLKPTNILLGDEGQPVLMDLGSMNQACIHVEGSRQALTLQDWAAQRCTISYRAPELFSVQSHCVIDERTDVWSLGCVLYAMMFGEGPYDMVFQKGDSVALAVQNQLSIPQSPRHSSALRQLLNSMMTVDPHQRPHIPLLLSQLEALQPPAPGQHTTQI
A further test addresses T2, PDK1 (Homo sapiens, UniProt O15530).
T2 sequence (O15530 1-556): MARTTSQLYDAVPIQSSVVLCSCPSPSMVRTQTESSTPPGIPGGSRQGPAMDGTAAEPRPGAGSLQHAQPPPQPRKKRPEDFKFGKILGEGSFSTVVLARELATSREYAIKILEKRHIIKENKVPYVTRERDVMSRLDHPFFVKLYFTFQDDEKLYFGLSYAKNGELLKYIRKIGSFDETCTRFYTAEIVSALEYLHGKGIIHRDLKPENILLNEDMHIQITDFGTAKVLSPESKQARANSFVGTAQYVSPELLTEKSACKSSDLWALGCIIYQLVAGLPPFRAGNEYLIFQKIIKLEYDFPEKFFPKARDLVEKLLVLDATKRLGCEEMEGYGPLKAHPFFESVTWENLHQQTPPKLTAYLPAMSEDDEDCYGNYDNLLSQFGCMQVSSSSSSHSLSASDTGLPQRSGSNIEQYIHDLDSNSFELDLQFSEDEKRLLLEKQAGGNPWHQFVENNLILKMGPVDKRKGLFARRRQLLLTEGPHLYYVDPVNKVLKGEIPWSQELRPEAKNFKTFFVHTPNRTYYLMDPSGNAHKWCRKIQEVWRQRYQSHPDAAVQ
The note with it: PDK1, 1µM; read-out: %Remaining activity at 1µM NU6300. The procedure:
as §1, §2, §3

In a further test the target is PKD1 (Homo sapiens, UniProt Q15139). The note with it: PKD1, 1µM; read-out: %Remaining activity at 1µM NU6300. The procedure:
as §1, §2, §3

For another test, the target named is PKCγ (Homo sapiens, UniProt P05129). As to conditions: read-out: %Remaining activity at 1µM NU6300. The method, then: as §1, §2, §3
The next test concerns the target PKBα (Homo sapiens, UniProt P31749). As to conditions: read-out: %Remaining activity at 1µM NU6300. The procedure: as §1, §2, §3
In the next test the target is MST4 (Homo sapiens, UniProt Q9P289). As to conditions: MST4, 1µM; read-out: %Remaining activity at 1µM NU6300. The method, then:
as §1, §2, §3

A further test has as its target NEK2a (Homo sapiens, UniProt P51955). The note with it: read-out: %Remaining activity at 1µM NU6300. The method, then: as §1, §2, §3
A further test addresses SYK (Homo sapiens, UniProt P43405). As to conditions: read-out: %Remaining activity at 1µM NU6300. The procedure:
as §1, §2, §3

Chain of ROCK 2 (O75116 whole entry): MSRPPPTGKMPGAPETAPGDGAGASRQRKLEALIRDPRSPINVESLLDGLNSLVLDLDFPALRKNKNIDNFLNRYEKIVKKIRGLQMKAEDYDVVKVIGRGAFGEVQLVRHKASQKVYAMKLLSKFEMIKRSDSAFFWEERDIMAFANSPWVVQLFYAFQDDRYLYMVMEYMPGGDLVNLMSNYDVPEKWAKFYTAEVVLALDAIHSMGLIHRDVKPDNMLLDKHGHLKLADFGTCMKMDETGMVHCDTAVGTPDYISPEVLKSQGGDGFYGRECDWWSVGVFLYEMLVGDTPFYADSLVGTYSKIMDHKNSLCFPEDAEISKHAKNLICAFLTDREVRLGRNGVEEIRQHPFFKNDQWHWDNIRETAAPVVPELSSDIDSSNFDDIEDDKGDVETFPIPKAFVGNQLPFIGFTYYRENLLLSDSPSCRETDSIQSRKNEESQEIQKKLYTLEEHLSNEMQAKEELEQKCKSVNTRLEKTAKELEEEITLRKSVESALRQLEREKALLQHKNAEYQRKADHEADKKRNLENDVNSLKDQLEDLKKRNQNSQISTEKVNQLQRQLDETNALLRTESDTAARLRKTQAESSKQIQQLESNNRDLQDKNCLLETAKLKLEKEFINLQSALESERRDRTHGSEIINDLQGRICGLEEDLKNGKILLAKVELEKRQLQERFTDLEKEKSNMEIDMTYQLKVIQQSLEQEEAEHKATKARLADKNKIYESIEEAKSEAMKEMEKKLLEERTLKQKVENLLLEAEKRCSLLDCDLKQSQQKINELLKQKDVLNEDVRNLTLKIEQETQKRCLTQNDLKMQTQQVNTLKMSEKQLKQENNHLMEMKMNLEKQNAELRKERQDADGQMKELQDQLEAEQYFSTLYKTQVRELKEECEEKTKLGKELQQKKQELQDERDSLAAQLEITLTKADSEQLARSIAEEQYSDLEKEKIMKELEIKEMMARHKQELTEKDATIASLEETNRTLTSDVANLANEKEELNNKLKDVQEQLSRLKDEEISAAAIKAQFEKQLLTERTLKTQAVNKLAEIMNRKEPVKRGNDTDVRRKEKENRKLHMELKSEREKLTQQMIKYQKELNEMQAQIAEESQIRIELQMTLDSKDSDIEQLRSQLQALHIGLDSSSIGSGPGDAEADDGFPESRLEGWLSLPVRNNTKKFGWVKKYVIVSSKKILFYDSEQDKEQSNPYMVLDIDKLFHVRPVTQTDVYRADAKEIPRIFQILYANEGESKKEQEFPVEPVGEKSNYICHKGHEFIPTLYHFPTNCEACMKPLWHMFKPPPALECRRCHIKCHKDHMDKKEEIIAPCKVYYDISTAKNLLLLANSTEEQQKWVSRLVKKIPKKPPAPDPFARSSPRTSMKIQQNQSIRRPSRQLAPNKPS
Chain of PKD1 (Q15139 whole entry): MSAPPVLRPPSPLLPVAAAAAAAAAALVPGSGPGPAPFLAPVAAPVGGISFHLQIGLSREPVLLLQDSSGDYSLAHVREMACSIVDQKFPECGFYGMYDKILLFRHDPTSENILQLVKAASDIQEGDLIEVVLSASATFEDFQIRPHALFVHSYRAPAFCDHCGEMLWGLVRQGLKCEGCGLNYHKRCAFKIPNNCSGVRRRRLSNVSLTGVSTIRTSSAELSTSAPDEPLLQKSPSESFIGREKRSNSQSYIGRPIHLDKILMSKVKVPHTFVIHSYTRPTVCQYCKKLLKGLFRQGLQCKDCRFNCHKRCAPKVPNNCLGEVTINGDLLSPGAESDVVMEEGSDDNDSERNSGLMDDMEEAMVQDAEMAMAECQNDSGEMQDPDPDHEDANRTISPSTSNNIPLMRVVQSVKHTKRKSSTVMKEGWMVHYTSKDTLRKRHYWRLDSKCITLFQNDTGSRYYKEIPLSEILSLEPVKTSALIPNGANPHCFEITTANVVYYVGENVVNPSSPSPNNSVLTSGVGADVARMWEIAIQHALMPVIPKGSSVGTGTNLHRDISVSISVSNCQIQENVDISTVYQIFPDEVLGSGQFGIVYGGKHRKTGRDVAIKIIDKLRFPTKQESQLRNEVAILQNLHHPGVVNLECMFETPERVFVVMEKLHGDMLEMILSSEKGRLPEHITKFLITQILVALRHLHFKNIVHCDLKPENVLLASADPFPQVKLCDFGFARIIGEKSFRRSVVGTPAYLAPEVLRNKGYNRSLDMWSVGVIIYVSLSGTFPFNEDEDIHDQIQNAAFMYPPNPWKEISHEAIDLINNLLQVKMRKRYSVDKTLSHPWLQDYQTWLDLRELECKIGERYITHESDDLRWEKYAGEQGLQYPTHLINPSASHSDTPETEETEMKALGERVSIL
Chain of MST4 (Q9P289 whole entry): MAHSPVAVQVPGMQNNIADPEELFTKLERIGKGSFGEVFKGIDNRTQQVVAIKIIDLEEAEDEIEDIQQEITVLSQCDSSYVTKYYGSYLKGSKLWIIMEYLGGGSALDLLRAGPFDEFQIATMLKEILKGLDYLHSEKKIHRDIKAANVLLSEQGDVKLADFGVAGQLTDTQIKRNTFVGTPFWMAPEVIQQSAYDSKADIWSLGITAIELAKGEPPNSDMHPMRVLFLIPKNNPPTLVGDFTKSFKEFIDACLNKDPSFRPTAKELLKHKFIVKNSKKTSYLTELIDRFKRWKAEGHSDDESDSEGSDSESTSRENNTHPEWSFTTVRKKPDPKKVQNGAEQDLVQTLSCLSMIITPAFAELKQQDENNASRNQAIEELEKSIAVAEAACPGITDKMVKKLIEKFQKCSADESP
Chain of PKBα (P31749 whole entry): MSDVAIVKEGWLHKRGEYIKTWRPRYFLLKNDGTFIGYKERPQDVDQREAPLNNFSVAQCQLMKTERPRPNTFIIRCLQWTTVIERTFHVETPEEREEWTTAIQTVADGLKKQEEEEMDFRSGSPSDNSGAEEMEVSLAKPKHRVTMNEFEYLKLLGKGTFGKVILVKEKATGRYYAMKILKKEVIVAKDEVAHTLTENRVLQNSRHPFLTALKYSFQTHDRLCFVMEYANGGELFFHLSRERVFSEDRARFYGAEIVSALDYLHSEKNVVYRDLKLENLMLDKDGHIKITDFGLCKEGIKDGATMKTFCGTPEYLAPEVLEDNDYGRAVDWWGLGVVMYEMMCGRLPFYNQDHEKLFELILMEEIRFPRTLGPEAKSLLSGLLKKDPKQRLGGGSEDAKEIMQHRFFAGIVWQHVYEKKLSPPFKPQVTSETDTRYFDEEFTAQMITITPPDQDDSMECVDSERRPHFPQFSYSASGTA
Chain of NEK2a (P51955 whole entry): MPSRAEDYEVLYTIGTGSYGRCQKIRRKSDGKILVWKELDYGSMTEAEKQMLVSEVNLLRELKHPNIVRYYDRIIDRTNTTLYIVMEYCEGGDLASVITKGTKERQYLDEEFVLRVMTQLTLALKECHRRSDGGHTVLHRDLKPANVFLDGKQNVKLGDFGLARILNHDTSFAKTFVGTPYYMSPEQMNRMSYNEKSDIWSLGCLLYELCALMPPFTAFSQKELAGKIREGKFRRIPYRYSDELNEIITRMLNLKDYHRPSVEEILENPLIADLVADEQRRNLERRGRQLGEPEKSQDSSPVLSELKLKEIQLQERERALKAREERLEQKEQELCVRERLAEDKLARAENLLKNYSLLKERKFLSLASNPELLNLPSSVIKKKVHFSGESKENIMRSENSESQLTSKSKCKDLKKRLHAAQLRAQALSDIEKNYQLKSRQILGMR

Take `C=CS(=O)(=O)c1ccc(Nc2nc(OCC3CCCCC3)c3nc[nH]c3n2)cc1` [NU6300, 6-(cyclohexylmethoxy)-N-(4-(vinylsulfonyl)phenyl)-9H-purin-2-amine]: the remaining activity at 1 µM at PLK1 amounted to 90%; on TBK1, 45%; on ROCK 2, 25%; at MPSK1 it was 92%; at PDK1, 29%; on PKD1, 55%. For the same compound, the remaining activity at 1 µM came to 104% at PKCγ; 101% at PKBα; 39% on MST4; 55% at NEK2a; 58% on SYK.
